In US11136313B2, “Compounds, compositions, and methods for modulating CFTR” (Proteostasis Therapeutics, Inc., priority 2015, dated 2021):

target: T1, ΔF508-CFTR (Homo sapiens, UniProt P13569, DEL508-508); experiment: hBE equivalent current (Ieq) assay: AUC of equivalent chloride current after forskolin/VX-770 in primary lung epithelial cells homozygous for ΔF508; format: cell-based; conditions: relative to CFTR amplifier (Compound A)+VX-809 (3 uM), compound at 10 uM and Compound A at 3 uM, 24 h treatment
T1 construct: Primary lung epithelial cells homozygous for the Cystic Fibrosis-causing ΔF508 mutation were differentiated for a minimum of 4 weeks; endogenous in cells; host or cells: primary lung epithelial cells (hBE) homozygous for ΔF508, differentiated at an air-liquid interface
Method: ii. hBE Equivalent Current (Ieq) Assay
Primary lung epithelial cells homozygous for the Cystic Fibrosis-causing ΔF508 mutation were differentiated for a minimum of 4 weeks in an air-liquid interface on Costar 24 well HTS filter plates prior to the equivalent current (Ieq) measurements. Cells were apically mucus-washed for 30 minutes 24 h prior to treatment with compounds. The basolateral media was removed and replaced with media containing the compound of interest diluted to its final concentration from DMSO stocks. Treated cells were incubated at 37° C. and 5% CO2 for 24 hours. At the end of the treatment period, the media was changed to the Ieq experimental solution for 2 hours before the experiment and plates are maintained in a CO2-free incubator during this period. The plates containing the cells were then placed in pre-warmed heating blocks at 36° C.±0.5 for 15 minutes before measurements are taken. The transepithelial voltage (VT) and conductance (GT) were measured using a custom 24 channel current clamp (TECC-24) with 24 well electrode manifold. The Ieq assay measurements were made following additions with standardized time periods: • 1. The baseline VT and GT values were measured for approximately 20 minutes. • 2. Benzamil was added to block ENaC for 15 minutes. • 3. Forskolin plus VX-770 were added to maximally activate ΔF508-CFTR for 27 minutes. • 4. Bumetanide was added to inhibit the NaK2Cl cotransporter and shut-off secretion of chloride.
The activity data captured was the area under the curve (AUC) for the traces of the equivalent chloride current. The AUC was collected from the time of the forskolin/VX-770 addition until the inhibition by bumetanide addition. Correction in response to compound treatment was scored as the increase in the AUC for compound-treated samples over that of vehicle-treated samples.
(+ indicates activity<50% of an CFTR amplifier (Compound A)+VX-809 (3 uM) with compound at 10 uM and Compound A at 3 uM; ++ indicates activity>50% of CFTR amplifier+VX-809 (3 uM) with compound at 10 uM and Compound A at 3 uM.

T1 sequence (P13569 with tags, fused parts or gaps DEL508-508): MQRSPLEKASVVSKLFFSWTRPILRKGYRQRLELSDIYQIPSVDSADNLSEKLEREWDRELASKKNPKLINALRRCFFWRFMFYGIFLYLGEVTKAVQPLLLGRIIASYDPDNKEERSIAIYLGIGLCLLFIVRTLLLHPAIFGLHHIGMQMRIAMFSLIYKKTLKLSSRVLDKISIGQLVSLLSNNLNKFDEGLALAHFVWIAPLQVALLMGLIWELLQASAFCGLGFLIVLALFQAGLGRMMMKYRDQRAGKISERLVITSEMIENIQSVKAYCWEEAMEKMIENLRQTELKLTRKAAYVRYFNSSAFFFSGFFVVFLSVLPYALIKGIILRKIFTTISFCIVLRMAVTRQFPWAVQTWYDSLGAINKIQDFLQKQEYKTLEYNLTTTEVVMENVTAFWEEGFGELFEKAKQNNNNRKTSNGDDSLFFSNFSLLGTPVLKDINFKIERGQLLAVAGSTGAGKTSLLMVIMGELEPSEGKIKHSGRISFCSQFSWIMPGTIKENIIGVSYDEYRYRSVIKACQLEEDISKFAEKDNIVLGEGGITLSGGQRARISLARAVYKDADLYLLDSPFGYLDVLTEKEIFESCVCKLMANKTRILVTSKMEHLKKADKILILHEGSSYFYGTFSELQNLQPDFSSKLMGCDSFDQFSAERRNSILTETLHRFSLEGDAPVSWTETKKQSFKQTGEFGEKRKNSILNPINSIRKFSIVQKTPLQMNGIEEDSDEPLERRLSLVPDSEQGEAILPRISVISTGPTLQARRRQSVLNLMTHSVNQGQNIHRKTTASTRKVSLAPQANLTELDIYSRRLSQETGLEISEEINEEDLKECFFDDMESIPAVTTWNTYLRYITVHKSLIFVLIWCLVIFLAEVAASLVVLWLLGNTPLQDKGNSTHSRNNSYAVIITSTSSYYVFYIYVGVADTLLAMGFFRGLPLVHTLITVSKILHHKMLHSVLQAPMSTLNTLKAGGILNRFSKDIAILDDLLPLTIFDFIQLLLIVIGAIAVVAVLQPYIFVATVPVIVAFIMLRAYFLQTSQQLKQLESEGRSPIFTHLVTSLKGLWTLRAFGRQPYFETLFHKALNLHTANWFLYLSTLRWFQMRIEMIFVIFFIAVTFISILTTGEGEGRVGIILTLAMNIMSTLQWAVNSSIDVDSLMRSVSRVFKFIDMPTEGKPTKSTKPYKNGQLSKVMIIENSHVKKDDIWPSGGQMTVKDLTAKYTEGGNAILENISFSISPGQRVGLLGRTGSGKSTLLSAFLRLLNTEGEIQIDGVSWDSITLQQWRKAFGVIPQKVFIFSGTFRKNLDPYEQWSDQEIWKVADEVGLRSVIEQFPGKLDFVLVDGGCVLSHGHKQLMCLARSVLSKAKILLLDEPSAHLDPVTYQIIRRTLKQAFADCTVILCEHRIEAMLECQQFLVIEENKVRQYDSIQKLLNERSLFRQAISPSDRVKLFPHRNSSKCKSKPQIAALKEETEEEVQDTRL

Q: How did the Activity turn out when `Cc1c(-c2nc(C(=O)O)c3c(OCc4ccccc4)ccc(C)c3n2)oc2ccccc12` [Compound 101, 5-(Benzyloxy)-8-methyl-2-(3-methyl-1-benzofuran-2-yl)quinazoline-4-carboxylic Acid] was run?
A: ++ (activity>50% of CFTR amplifier+VX-809 (3 uM) with compound at 10 uM and Compound A at 3 uM)

Q: With `Cc1c(-c2cc(C(=O)O)c3cc(Cl)cc(C)c3n2)sc2ccccc12` [Compound 104, 6-Chloro-8-methyl-2-(3-methyl-1-benzothiophen-2-yl)quinoline-4-carboxylic acid] as the compound, how does the Activity read?
A: ++ (activity>50% of CFTR amplifier+VX-809 (3 uM) with compound at 10 uM and Compound A at 3 uM)

Q: Which Activity does the source give for `Cc1cc(C)c2nc(-c3oc4ccccc4c3C)c(C(=O)O)cc2c1` [Compound 105, 6,8-Dimethyl-2-(3-methyl-1-benzofuran-2-yl)quinoline-3-carboxylic Acid] here?
A: + (activity<50% of an CFTR amplifier (Compound A)+VX-809 (3 uM) with compound at 10 uM and Compound A at 3 uM)

Q: With `Cc1oc2ccccc2c1-c1cc(C(=O)O)c2c(OCc3ccccc3)ccc(C3CC3)c2n1` [Compound 106, 5-(Benzyloxy)-8-cyclopropyl-2-(2-methyl-1-benzofuran-3-yl)quinoline-4-carboxylic acid] as the compound, how does the Activity read?
A: ++ (activity>50% of CFTR amplifier+VX-809 (3 uM) with compound at 10 uM and Compound A at 3 uM)

Q: `Cc1c(-c2cc(C(=O)O)c3c(OCc4ccccc4)ccc(C4CC4)c3n2)oc2ccccc12` [Compound 107, 5-(Benzyloxy)-8-cyclopropyl-2-(3-methyl-1-benzofuran-2-yl)quinoline-4-carboxylic acid] was tested. Which Activity did it give?
A: ++ (activity>50% of CFTR amplifier+VX-809 (3 uM) with compound at 10 uM and Compound A at 3 uM)

Q: `CCc1ccc(OCc2ccccc2)c2c(C(=O)O)cc(-c3oc4ccccc4c3C)nc12` [Compound 108, 5-(benzyloxy)-8-ethyl-2-(3-methyl-1-benzofuran-2-yl)quinoline-4-carboxylic acid] was tested. Which Activity did it give?
A: ++ (activity>50% of CFTR amplifier+VX-809 (3 uM) with compound at 10 uM and Compound A at 3 uM)

Q: With `Cc1c(-c2cc(C(=O)O)c3c(OCc4ccccc4)ccc(C(C)C)c3n2)oc2ccccc12` [Compound 109, 5-(Benzyloxy)-2-(3-methyl-1-benzofuran-2-yl)-8-(propan-2-yl)quinoline-4-carboxylic acid] as the compound, how does the Activity read?
A: ++ (activity>50% of CFTR amplifier+VX-809 (3 uM) with compound at 10 uM and Compound A at 3 uM)

Q: How did the Activity turn out when `Cc1c(-c2cc(C(=O)O)c3c(OCc4ccccc4)ccc(F)c3n2)oc2ccccc12` [Compound 110, 5-(Benzyloxy)-8-fluoro-2-(3-methyl-1-benzofuran-2-yl)quinoline-4-carboxylic acid] was run?
A: ++ (activity>50% of CFTR amplifier+VX-809 (3 uM) with compound at 10 uM and Compound A at 3 uM)

Q: `Cc1c(-c2cc(C(=O)O)c3c(OCc4ccccc4)ccc(Cl)c3n2)oc2ccccc12` [Compound 111, 5-(Benzyloxy)-8-chloro-2-(3-methyl-1-benzofuran-2-yl)quinoline-4-carboxylic acid] was tested. Which Activity did it give?
A: + (activity<50% of an CFTR amplifier (Compound A)+VX-809 (3 uM) with compound at 10 uM and Compound A at 3 uM)

Q: `Cc1c(-c2cc(C(=O)O)c3c(OCc4ccccc4)ccc(C#N)c3n2)oc2ccccc12` [Compound 112, 5-(benzyloxy)-8-cyano-2-(3-methyl-1-benzofuran-2-yl)quinoline-4-carboxylic Acid] was tested. Which Activity did it give?
A: ++ (activity>50% of CFTR amplifier+VX-809 (3 uM) with compound at 10 uM and Compound A at 3 uM)

Q: For `CCc1ccc(C)c2nc(-c3oc4ccccc4c3C)cc(C(=O)O)c12` [Compound 113, 5-Ethyl-8-methyl-2-(3-methyl-1-benzofuran-2-yl)quinoline-4-carboxylic acid], which Activity is on record?
A: + (activity<50% of an CFTR amplifier (Compound A)+VX-809 (3 uM) with compound at 10 uM and Compound A at 3 uM)

Q: For `Cc1c(-c2cc(C(=O)O)c3c(OCc4cccnc4)ccc(C)c3n2)oc2ccccc12` [Compound 114, 8-Methyl-2-(3-methyl-1-benzofuran-2-yl)-5-(pyridin-3-ylmethoxy)quinoline-4-carboxylic acid], which Activity is on record?
A: + (activity<50% of an CFTR amplifier (Compound A)+VX-809 (3 uM) with compound at 10 uM and Compound A at 3 uM)

Q: Which Activity does the source give for `Cc1c(-c2cc(C(=O)O)c3c(OCc4ccccn4)ccc(C)c3n2)oc2ccccc12` [Compound 115, 8-Methyl-2-(3-methyl-1-benzofuran-2-yl)-5-(pyridin-2-ylmethoxy)quinoline-4-carboxylic acid] here?
A: + (activity<50% of an CFTR amplifier (Compound A)+VX-809 (3 uM) with compound at 10 uM and Compound A at 3 uM)

Q: For `Cc1c(-c2cc(C(=O)O)c3c(NCc4ccccc4)ccc(C)c3n2)oc2ccccc12` [Compound 116, 5-(Benzylamino)-8-methyl-2-(3-methyl-1-benzofuran-2-yl)quinoline-4-carboxylic Acid], which Activity is on record?
A: ++ (activity>50% of CFTR amplifier+VX-809 (3 uM) with compound at 10 uM and Compound A at 3 uM)

Q: How did the Activity turn out when `Cc1c(-c2cc(C(=O)O)c3cc(OC(F)(F)F)cc(C)c3n2)oc2ccccc12` [Compound 117, 8-Methyl-2-(3-methyl-1-benzofuran-2-yl)-6-(trifluoromethoxy)quinoline-4-carboxylic acid] was run?
A: ++ (activity>50% of CFTR amplifier+VX-809 (3 uM) with compound at 10 uM and Compound A at 3 uM)

Q: How did the Activity turn out when `Cc1c(-c2cc(C(=O)O)c3cc(OC(F)F)cc(C)c3n2)oc2ccccc12` [Compound 118, 6-(Difluoromethoxy)-8-methyl-2-(3-methyl-1-benzofuran-2-yl)quinoline-4-carboxylic acid] was run?
A: ++ (activity>50% of CFTR amplifier+VX-809 (3 uM) with compound at 10 uM and Compound A at 3 uM)

Q: How did the Activity turn out when `Cc1c(-c2cc(C(=O)O)c3cc(OCC(F)F)cc(C)c3n2)oc2ccccc12` [Compound 119, 6-(2,2-Difluoroethoxy)-8-methyl-2-(3-methyl-1-benzofuran-2-yl)quinoline-4-carboxylic acid] was run?
A: + (activity<50% of an CFTR amplifier (Compound A)+VX-809 (3 uM) with compound at 10 uM and Compound A at 3 uM)

Q: For `Cc1c(-c2cc(C(=O)O)c3c(OC(F)F)ccc(C)c3n2)oc2ccccc12` [Compound 120, 5-(Difluoromethoxy)-8-methyl-2-(3-methyl-1-benzofuran-2-yl)quinoline-4-carboxylic acid], which Activity is on record?
A: ++ (activity>50% of CFTR amplifier+VX-809 (3 uM) with compound at 10 uM and Compound A at 3 uM)

Q: Which Activity does the source give for `Cc1c(-c2cc(C(=O)O)c3c(OC(F)(F)F)ccc(C)c3n2)oc2ccccc12` [Compound 121, 8-Methyl-2-(3-methyl-1-benzofuran-2-yl)-5-(trifluoromethoxy)quinoline-4-carboxylic acid] here?
A: + (activity<50% of an CFTR amplifier (Compound A)+VX-809 (3 uM) with compound at 10 uM and Compound A at 3 uM)

Q: `Cc1c(-c2cc(C(=O)O)c3c(OCC(F)F)ccc(C)c3n2)oc2ccccc12` [Compound 122, 5-(2,2-Difluoroethoxy)-8-methyl-2-(3-methyl-1-benzofuran-2-yl)quinoline-4-carboxylic acid] was tested. Which Activity did it give?
A: ++ (activity>50% of CFTR amplifier+VX-809 (3 uM) with compound at 10 uM and Compound A at 3 uM)

Q: How did the Activity turn out when `Cc1oc2ccccc2c1-c1cc(C(=O)O)c2c(OC(F)F)ccc(C)c2n1` [Compound 123, 5-(Difluoromethoxy)-8-methyl-2-(2-methyl-1-benzofuran-3-yl)quinoline-4-carboxylic acid] was run?
A: + (activity<50% of an CFTR amplifier (Compound A)+VX-809 (3 uM) with compound at 10 uM and Compound A at 3 uM)

Q: `Cc1oc2ccccc2c1-c1cc(C(=O)O)c2c(OCC(F)F)ccc(C)c2n1` [Compound 124, 5-(2,2-Difluoroethoxy)-8-methyl-2-(2-methyl-1-benzofuran-3-yl)quinoline-4-carboxylic acid] was tested. Which Activity did it give?
A: + (activity<50% of an CFTR amplifier (Compound A)+VX-809 (3 uM) with compound at 10 uM and Compound A at 3 uM)

Q: With `Cc1c(-c2cc(C(=O)O)c3c(C)ccc(C)c3n2)oc2c(C)cccc12` [Compound 125, 2-(3,7-Dimethyl-1-benzofuran-2-yl)-5,8-dimethylquinoline-4-carboxylic acid] as the compound, how does the Activity read?
A: ++ (activity>50% of CFTR amplifier+VX-809 (3 uM) with compound at 10 uM and Compound A at 3 uM)

Q: With `Cc1ccc2oc(-c3cc(C(=O)O)c4c(C)ccc(C)c4n3)c(C)c2c1` [Compound 127, 2-(3,5-Dimethylbenzofuran-2-yl)-5,8-dimethylquinoline-4-carboxylic acid] as the compound, how does the Activity read?
A: ++ (activity>50% of CFTR amplifier+VX-809 (3 uM) with compound at 10 uM and Compound A at 3 uM)

Q: With `Cc1ccc(C)c2c(C(=O)O)cc(-c3oc4cccc(C)c4c3C)nc12` [Compound 128, 2-(3,4-Dimethyl-1-benzofuran-2-yl)-5,8-dimethylquinoline-4-carboxylic acid] as the compound, how does the Activity read?
A: + (activity<50% of an CFTR amplifier (Compound A)+VX-809 (3 uM) with compound at 10 uM and Compound A at 3 uM)

Q: Which Activity does the source give for `Cc1c(-c2cc(C(=O)O)c3c(C)ccc(C)c3n2)oc2c(Cl)cccc12` [Compound 129, 2-(7-Chloro-3-methylbenzofuran-2-yl)-5,8-dimethylquinoline-4-carboxylic acid] here?
A: + (activity<50% of an CFTR amplifier (Compound A)+VX-809 (3 uM) with compound at 10 uM and Compound A at 3 uM)
